Target: T1, PalQ (Paenibacillus alvei, UniProt A0ABT4H1V4)
T1 construct: gene M5X12_20665; homodimer by size exclusion chromatography
T1 sequence (A0ABT4H1V4 1-312): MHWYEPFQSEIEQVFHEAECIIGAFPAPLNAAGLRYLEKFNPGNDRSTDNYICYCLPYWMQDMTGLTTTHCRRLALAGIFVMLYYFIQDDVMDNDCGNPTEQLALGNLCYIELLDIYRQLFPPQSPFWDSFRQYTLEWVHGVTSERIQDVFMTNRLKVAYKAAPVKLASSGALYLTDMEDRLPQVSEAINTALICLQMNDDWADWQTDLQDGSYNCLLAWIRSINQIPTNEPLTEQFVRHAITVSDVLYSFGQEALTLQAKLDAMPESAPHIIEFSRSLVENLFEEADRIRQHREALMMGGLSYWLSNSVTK
Assay: prenylation kinetics, Michaelis-Menten curve
Assay type: biochemical
Settings: acceptor PalX; curve without saturation, poor water solubility

`CC(C)=CCC/C(C)=C/CC/C(C)=C/COP(=O)(O)OP(=O)(O)O` [FPP] was tested, and the “prenylation kinetics, Michaelis-Menten curve” value was “We then assessed the kinetics of PalQ for DMAPP, GPP, and FPP”.
For `CC(C)=CCC/C(C)=C/COP(=O)(O)OP(=O)(O)O` [GPP], the “prenylation kinetics, Michaelis-Menten curve” value was “We then assessed the kinetics of PalQ for DMAPP, GPP, and FPP”.

Reference: PMC10853753, “Structure Prediction and Genome Mining‐Aided Discovery of the Bacterial C‐Terminal Tryptophan Prenyltransferase PalQ” (Advanced Science, 2023)
